According to patent publication US11390894B2, “Biological processes for the production of aryl sulfates” (CysBio ApS, priority 2014, dated 2022):

Assays:
SULT1A1 from rat = molecular target: T1, SULT1A1 from rat (Rattus norvegicus, UniProt P17988); test: Sulfation of phenolic compounds in vivo by E. coli strain expressing sulfotransferase; format: cell-based; settings: M9, 1 mM IPTG, overnight 37° C.; start concentration per compound 61-287 μM
T1 construct: 1, 3, 4, 5, and 6 were cloned amplified from liver tissue cDNA (Zyagen) by PCR; expressed in transfected cells; host or cells: E. coli BL21(DE3)pLysS, plasmid pETDuet-1
T1 sequence (P17988 whole entry): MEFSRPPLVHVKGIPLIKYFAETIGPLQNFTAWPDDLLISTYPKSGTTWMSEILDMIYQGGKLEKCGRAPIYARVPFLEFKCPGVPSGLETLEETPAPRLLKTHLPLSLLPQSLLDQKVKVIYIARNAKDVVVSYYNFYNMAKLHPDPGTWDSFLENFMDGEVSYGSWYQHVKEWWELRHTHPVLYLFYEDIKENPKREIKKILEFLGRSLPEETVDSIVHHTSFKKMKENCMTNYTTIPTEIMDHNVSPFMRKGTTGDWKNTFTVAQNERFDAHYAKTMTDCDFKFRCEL
Experimental: (§1) The concentration of p-courmaric acid (pHCA) and zosteric acid in the supernatant was quantified by high performance (HPLC) and compared to chemical standards. HPLC was done on a Thermo setup using a HS-F5 column and mobile phases: 5 mM ammonium formate pH 4.0 (A) and acetonitrile (B) at 1.5 mL min-1, using a gradient elution starting at 5% B. From 0.5 min after injection to 7 min, the fraction of B increased linearly from 5% to 60%, and between 9.5 min and 9.6 the fraction of B decreased back to 5%, and remaining there until 12 min. pHCA and zosteric acid were quantified by measuring absorbance at 277 nm.
(§2) To further test the range of substrates that can be sulfated, we used strains carrying plasmids expressing SULT1A1 from rat (Rattus norvegicus) and SULT1E1 from chicken (Gallus gallus domesticus) (Example 1) cloned into the expression vector pETDuet-1, and cysDNCQ from E. coli cloned into expression vector pRSFDuet-1 (Example 2). The plasmids were introduced into the E. coli expression strain BL21(DE3)pLysS as described previously, selecting for transformants with appropriate antibiotics, namely 34 μg mL^1 chloramphenicol for pLysS, 100 μg mL^−1 ampicillin for pETDuet-1-based vectors, and 100 μg mL^−1 kanamycin for pRSFDuet-1-based vectors. […] A control strain without a sulfotransferase gene or cysDNCQ operon was also examined.
(§3) The strains were precultured in 2×YT medium with appropriate antibiotics. 10 μL of these precultures were used to inoculate M9 media with 1 mM IPTG and none or a single substrate for sulfation. After overnight growth at 37° C., 300 rpm the supernatants were withdrawn and examined by HPLC as described in Example 1. The compounds were detected by UV absorbance.

SULT1E1 from chicken = test: as above; format: cell-based, Gallus gallus domesticus; settings: M9, 1 mM IPTG, overnight 37° C.; start concentration per compound 61-287 μM
Experimental: as §1, §2, §3

SULT1A1 rat + CysDNCQ = molecular target: T2, SULT1A1 rat + CysDNCQ (Rattus norvegicus, UniProt P17988); test: Sulfation of phenolic compounds in vivo by E. coli strain expressing sulfotransferase with cysDNCQ; format: cell-based; settings: M9, 1 mM IPTG, overnight 37° C.; start concentration per compound 61-287 μM
T2 construct: 1, 3, 4, 5, and 6 were cloned amplified from liver tissue cDNA (Zyagen) by PCR; expressed in transfected cells; host or cells: E. coli BL21(DE3)pLysS with pETDuet-1 (SULT1A1) and pRSFDuet-1 (cysDNCQ)
T2 sequence (P17988 whole entry): as above
Experimental: as §1, §2, §3

E. coli MG1655 = test: Toxicity of unsulfated or sulfated product: growth rates of E. coli; format: cell-based; settings: M9 0.2% glucose, pH 7, 37° C.; 10-40 mM pHCA or 20 or 40 mM zosteric acid
Description: All media preparations had been adjusted to pH 7. […] Filled squares represent growth rates in media with pHCA.

Structure (SMILES)	percent reduction in concentration compared to the control strain, SULT1A1 (SULT1A1 from rat)	percent reduction in concentration compared to the control strain, SULT1E1 (SULT1E1 from chicken)	percent reduction in concentration compared to the control strain, SULT1A1 + CysDNCQ (SULT1A1 rat + CysDNCQ)	toxicity to the cells (growth rates in exponential growth phase, FIG. 5) (E. coli MG1655)
O=C(O)CCc1ccc(O)cc1 [3-(4-Hydroxyphenyl) propionic acid]	3%	1%	7%	–
O=C(O)C(=O)Cc1ccc(O)cc1 [4-Hydroxyphenyl pyruvic acid]	47%	100%	64%	–
CC(=O)Nc1ccc(O)cc1 [4-acetamidophenol, reference compound]	24%	10%	30%	–
O=C(O)c1ccc(O)cc1 [4-hydroxybenzoic acid]	5%	4%	6%	–
O=c1cc(-c2ccc(O)cc2)oc2cc(O)cc(O)c12 [Apigenin]	41%	98%	99%	–
COc1cc(/C=C/C(=O)O)ccc1O [Ferulic acid]	72%	67%	100%	–
O=c1cc(-c2ccc(O)c(O)c2)oc2cc(O)cc(O)c12 [Luteolin]	27%	0%	37%	–
O=c1c(O)c(-c2ccc(O)c(O)c2)oc2cc(O)cc(O)c12 [Quercetin]	75%	74%	81%	–
COc1cc(C(=O)O)ccc1O [Vanillic acid]	33%	0%	39%	–
O=c1c(O)c(-c2ccc(O)c(O)c2)oc2cc(O)ccc12 [fisetin]	98%	98%	100%	–
O=C(O)/C=C/c1ccc(O)cc1 [pHCA, p-coumaric acid]	–	–	–	toxic to the cells
